The test system of one series is MCII cells. The series is described as follows: MCII Mast Cell Toxicity Assay (XTT). Format: cell-based, mouse. The conditions noted are these: sensitized MCII cells, 4-12 hours, 37° C., read-out: MCII Mast Cell Toxicity IC50. The text has this:
MCII Mast Cell Toxicity Assay
This toxicity assay is run in parallel with the MCII mast cell LTC4 assay and serves as an indicator of compound effects on the viability and metabolic activity of the MCII cells. This "toxicity" assay is based on the ability of dehydrogenase enzymes present in viable metabolically active cells to bioreduce the tetrazolium sale XTT yielding a colored, water soluble formazan product. (see, Roehm et al.) "An improved colorimetric assay for cell proliferation and viability utilizing the tetrazolium salt XTT. J. Immunol. Methods 142:257-65 (1991).
A duplicate polystyrene 96-well tissue culture plate (Costar) is set up with sensitized MCII cells, EM95 ascites, media and dilutions of the test compound as described above. The complete media is supplemented with concanavalin A induced culture supernatants from the mouse helper T cell clone D10.G4, as a source of mast cell growth factors.
Wells of the toxicity assay plate are pulsed with 25 μl XTT (Sigma) plus phenazine methosulfate (Aldrich) giving a final concentration of 0.2 mg/ml XTT and 25 μM phenazine methosulfate. The plates are incubated at 37° C. in 10% CO2 for 4-12 hours and then production of the XTT formazan product determined by measuring the optical density of the wells at a wavelength of 450 nm. The positive control on each plate is stimulated MCII cells with dimethyl sulfoxide vehicle alone and the negative control is the same reaction mixture without cells. The background negative control value is subtracted from experimental and positive control values and the data are reported as percent of positive control.
(Tetrazolium dyes change colour on reduction, which living cells bring about.)

The subject of series [1] is TxB2 production in plasma-depleted blood. Kind of series: Inhibition of Eicosanoid Production by Plasma-Depleted Blood: TxB2. Format: cell-based. Conditions: Homo sapiens, read-out: Plasma DPLTD Blood TxB2 IC50. On the procedure: Inhibition of Eicosanoid Production by Plasma-Depleted Blood
Compounds are evaluated for their ability to inhibit production of leukotriene B4 (LTB4) and thromboxane B2 (TxB2) upon stimulation of human plasma-depleted blood with formyl-methionyl-leucyl-phenylalanine (FMLP) and thrombin. LTB4 is produced by neutrophils and TxB2 by platelets stimulated at their respective receptors with FMLP and thrombin. The assay is carried out in 1 ml deep well polypropylene 96-well plates (Beckman). For the test, ten ml of blood is collected in EDTA at a final concentration of 1.5 mg/ml. Then, 40 ml glucose phosphate buffer containing 0.1% gelatin is added and the suspension centrifuged at 900 g for 10 minutes at room temperature. The supernatant is discarded and the cells washed once with 50 ml buffer before resuspending them in 50 ml Krebs-Ringers-Henseleit Buffer containing 0.1% gelatin, 1 mM CaCl2, 1.1 mM MgCl2 (KRH buffer). Working solutions of test compounds are made by dissolving the material in DMSO at 10 mM and diluting with appropriate amounts of KRH buffer. An agonist solution is made containing 1 μM FMLP (sigma) and 10 units/ml of thrombin in KRH buffer (Enzyme Research Labs). […] The amount of LTB4 and TxB2 produced is determined by the use of a competitive enzyme immunoassay using commercial reagents from Cayman Chemical.

Some results are limits rather than exact numbers.

What is called IC50 is the concentration that gives 50% inhibition.

On to `O=C(c1cccc2ccccc12)c1c(-c2ccc(O)cc2)sc2cc(O)ccc12` [Example 2, 6-hydroxyphenyl-2-(p-hydroxyphenyl)-(benzo(B)thien-3-yl) (α-napthyl)methanone], for which the CC50 in the series on MCII cells is greater than 10 µM.
Consider `O=C(c1ccc(-c2ccccc2)cc1)c1c(-c2ccc(O)cc2)sc2cc(O)ccc12` [Example 1, 6-hydroxyphenyl-2-(p-hydroxyphenyl)-(benzo(B)thien-3-yl)(p-phenyl)phenyl methanone], for which the CC50 in the series with MCII cells is greater than 10 µM.
Turning to `Oc1ccc(-c2cc3ccc(O)cc3s2)cc1` [Compound B], the CC50 in the series with MCII cells was less than 10 µM.
For `O=C(c1ccc2ccccc2c1)c1c(-c2ccc(O)cc2)sc2cc(O)ccc12` [Example 3, 6-hydroxyphenyl-2-(p-hydroxyphenyl)-(benzo(B)thien-3-yl)(β-napthyl)methanone], the CC50 with MCII cells was greater than 10 µM.
`O=C(c1ccc(O)cc1)c1c(-c2ccc(O)cc2)sc2cc(O)ccc12` [Compound D]: in series [1], the IC50 was greater than 9.8 µM.

The values above are taken from patent publication US5514703A, “Benzothiophene compounds useful for inhibiting lipoxygenase” (Eli Lilly and Company, priority 1995, dated 1996).
